Assay results taken from US11712432B2, “Method of treating cancer with an elevated glycogen content” (University of Kentucky Research Foundation, priority 2018, dated 2023).
“Also recorded” adds a separate entry of the source. Where two headings read alike, the source gives them in different places. Values belong to the molecule of their own block, whether it stands above or below them.

Tests used:
[1] = system: A549 adenoma cells; experiment: A549 cells treated with increasing concentrations of DAB; type: cell-based; settings: Homo sapiens, FIG. 32A
Text: (§1) FIGS. 32A-B show graphs illustrating in vitro and in vivo efficacy of the glycogen phosphorylase inhibitor 1,4-dideoxy-1,4-imino-d-arabinitol (DAB) in non-small cell lung cancer.

[2] = system: A549 xenografts; experiment: A549 xenograft, tumor size; type: in vivo, athymic nude mice; settings: 20 mg/kg daily intraperitoneal vs PBS, 15 weeks
Method: as §1
For in vivo tumor growth, H1299, H2030 and A549 cells were dissociated into single cells, counted and resuspended at 5×10^6 cells per 100 μl of 1:1 media/matrigel (BD). 8-10-week-old female Foxn1^nu/Foxn1^nu(Nude) mice (JAX Laboratories) were injected subcutaneously with 5×10^6 cells on both sides of the flanks. Tumor growth was measured twice a week by caliper in a non-blinded fashion. Tumors were allowed to grow upwards of 1000 mm^3. All mouse experiments were approved by the BCH Animal Care and Use Committee and by the University of Kentucky Institutional Animal Care and Use Committee, both accredited by the Association for Assessment and Accreditation of Laboratory Animal Care and were performed in accordance with relevant institutional and national guidelines and regulations.

[3] = system: AMPK; experiment: p-AMPK and p-ACC after metformin treatment of ES cells; type: cell-based
Method: Whole-cell extracts were generated in RIPA buffer (0.5% deoxycholate, 1% IGEPAL-CA630, 0.1% sodium dodecyl sulfate, 150 mM NaCl, 50 mM Tris-8.1), lysates were cleared by centrifugation and protein concentrations were quantified with the Pierce BCA Protein Assay Kit (Thermo). For western blotting, 25 μg of protein extract per sample was denatured with heat and reducing agents, separated on a 4-12% acrylamide gel (BioRad) and transferred to PVDF (BioRad). Antibodies used for western blotting were: malin (Abcam, 1:1,000), acetyl-H3 (EMDmillipore, 1:1,000), pan-methylation (AbCAM, 1:1,000), myc (Abcam, 1:500), branching enzyme (Lsbio, 1:500), glycogen debranching enzyme (LSBio, 1:1,000), glycogen phosphorylase liver isoform (Cell Signaling Technology 46955 1:2,000), glycogen phosphorylase brain isoform (LSBio, 1:1,000), GAPDH (Abcam 1:1,0000), Histone H3 (Abcam ab1791, 1:20,000), H3K27Ae (Abcam, 1:500), Flag-M2-HRP (Sigma, 1:5000), HSP70 (Abcam, 1:5000) and H3K27me3 (Millipore 07-449; 1:4,000). Each primary antibody was incubated overnight at 4° C. Tubulin (Abcam, 1:20,000) was used as a loading control. All antibodies have detailed species validation available online from vendors. The secondary antibody anti-rabbit IgG, HRP-linked Antibody (Cell Signaling 7074, 1:5,000) or anti-mouse IgG, HRP-linked antibody (Cell Signaling 7076, 1:5,000) was incubated for 1 h at room temperature. After washing, chemiluminescence images were acquired using the ChemiDocMP (BioRad).
Malin-overexpression cells are more sensitive to the AMPK-activator metformin. Since aberrant ES-glycogen binds to AMPK with high affinity and is inhibitory over p-AMPK activity, malin-OE cells that normalize glycogen architecture should be more sensitive to AMPK activators. Both A673-EV and A673-malin-OE cells were treated with 2 mM metformin and both p-AMPK and p-ACC were assessed.

[4] = system: A673 Ewing's sarcoma cells; experiment: Cell viability after guaiacol treatment, A673; type: cell-based; settings: Homo sapiens
Method: (§2) (A) A673 Ewing's sarcoma cells were treated with increasing concentrations of guaiacol. […] (E) A673 cells (10^7) were injected subcutaneously in athymic nude mice and when the tumor reached 0.1 cm^3 in size, a daily intraperitoneal injection was initiated of either PBS or guaiacol (20 mg/kg) and tumor size was measured over 15 weeks.
(§3) Glycogen metabolism has not been evaluated as an anti-cancer target in ES. Guaiacol is a naturally occurring compound that is a GYS inhibitor. […] Cell viability after treatment of guaiacol was assessed at various concentrations for 48 hrs in three different ES cell lines (TC32, A673 and HS822T).

[5] = system: TC32; experiment: Cell viability after guaiacol treatment, TC32; type: cell-based; settings: Homo sapiens, TC-32; TC32, 48 hrs; read-out: IC50 (50% cell viability)
Method: as §3, with “Guaiacol as a therapeutic agent to target ES in vitro and in vivo. Glycogen” for “Glycogen”, “HS822T). Guaiacol IC50 (50% cell viability) for all three cell lines is ˜20 μM which corresponds to a 3-fold reduction in total glycogen (A673 is shown in FIGS. 31A-C).” for “HS822T).”

[6] = system: HS822T; experiment: Cell viability after guaiacol treatment, HS822T; type: cell-based; settings: 48 hrs, read-out: IC50 (50% cell viability)
Method: as §3, with “Guaiacol as a therapeutic agent to target ES in vitro and in vivo. Glycogen” for “Glycogen”, “HS822T). Guaiacol IC50 (50% cell viability) for all three cell lines is ˜20 μM which corresponds to a 3-fold reduction in total glycogen (A673 is shown in FIGS. 31A-C).” for “HS822T).”

[7] = system: A673; experiment: Total glycogen in guaiacol treated ES cell lines; type: cell-based; settings: at ~20 μM (IC50), A673 shown
Method: Cells were washed twice in PBS and then lysed in 20 mM NaAcetate pH 5.3, 150 mM NaCl, 10% (v/v) glycerol, 1% (v/v) NP-40. Lysates were centrifuged at 10,000×g at 4° C. for ten minutes. Cleared lysates or purified glycogen were dissolved in ddH2O, followed by acid hydrolysis with 2N HCL for 3 h at 98° C. The reaction was quenched with 2N NaOH for subsequent experiments. Glycogen-derived glucose molecules were measured by either biochemical assay or gas chromatography-mass spectrometry (GC-MS). For the biochemical assay, a portion of the digested lysate was incubated for half an hour at room temperature with 100 U L^−1 of both hexokinase and glucose-6-phosphate dehydrogenase (Sigma) in 50 mM Tris-HCl pH 7.5, 5 mM MgCl2, 0.5 mM ATP, 0.5 mM NAD^+. The absorbance was measured at 340 nm using glucose standards to determine glycogen concentration in lysates; undigested lysates were used for background subtraction. […]
Guaiacol as a therapeutic agent to target ES in vitro and in vivo. Glycogen metabolism has not been evaluated as an anti-cancer target in ES. […] Cell viability after treatment of guaiacol was assessed at various concentrations for 48 hrs in three different ES cell lines (TC32, A673 and HS822T). […]

[8] = system: A673 xenograft tumors; experiment: Normalized glycogen levels in treated xenograft tumors; type: in vivo, athymic nude mice; settings: FIG. 31C
Method: as §2, with “FIGS. 31A-E show graphs illustrating in vitro and in vivo efficacy of the glycogen synthase inhibitor guaiacol as an anti-ES agent. (A)” for “(A)”, “guaiacol. (B) The IC50 for guaiacol is ˜20 μm in A673 cells.” for “guaiacol.”
(§4) The efficacy of guaiacol was further tested in the xenograft model of ES. A673 cells (10^6) were injected subcutaneously in athymic nude mice and when the tumor reached 0.1 cm^3 in size daily IP injection of either PBS or guaiacol (20 mg/kg) was initiated and tumor size was measured over 15 weeks.

[9] = system: AMPK; experiment: Metformin induced AMPK activation (p-ACC) in guaiacol treated cells; type: cell-based; settings: guaiacol treated cells plus metformin
[10] = system: A673 xenograft; experiment: A673 xenograft model of ES, tumor size; type: in vivo, athymic nude mice; settings: 20 mg/kg daily intraperitoneal vs PBS, 15 weeks
Method: as §2, with “FIGS. 31A-E show graphs illustrating in vitro and in vivo efficacy of the glycogen synthase inhibitor guaiacol as an anti-ES agent. (A)” for “(A)”, “guaiacol. (B) The IC50 for guaiacol is ˜20 μm in A673 cells.” for “guaiacol.”
as §4

[11] = Tolerability in xenograft mice (body weight, motor and behavior testing); type: in vivo; settings: 20 mg/kg daily IP, athymic nude mice
Method: as §4

[12] = general statement; cited from earlier work
[13] = general statement; cited from earlier work; remark: listed apart in the source
[14] = system: HEK293 cells; experiment: GP localization by immunofluorescence after leptomycin; type: cell-based; settings: leptomycin B for 3 hours
Text: FIGS. 11A-E show images illustrating that malin ubiquitination of GPBB drives nuclear localization. (A) Immunoblotting analysis of HSP70, laforin, glycogen debranching enzyme (GDE), branching enzyme (BE), and glycogen phosphorylase (GP) with anti-tubulin (Tub) as the loading control in empty vector (EV) or malin-overexpressing (malin-OE) HEK293 cells. (B) Localization of exogenously expressed malin and GP in HEK293 cells assessed by immunofluorescence. (C) In vitro ubiquitination assay using recombinant E1, E2 (UbcH5a), malin, and myc-GP followed by immunoprecipitation with anti-myc, SDS-PAGE, and immunoblotting analysis with an antibody detecting ubiquitin. (D) Effect of inhibition of nuclear […] with leptomycin on GP localization. HEK293 cells were transfected with GFP-MEK or empty vector for the analysis of endogenous GP. Twenty-four hours post-transfection, cells were exposed to leptomycin B for 3 hours, and protein localization was assessed by immunofluorescence. (E) Schematic model for GP nuclear translocation after malin-mediated ubiquitination. All data are representative of three experiments.
Since GPBB is a novel malin-interacting protein, malin-dependent regulation of its localization was of interest. GPBB is largely localized to the cytoplasm (FIG. 11B). […]

[15] = 2 mM metformin, A673-EV and A673-malin-OE cells

- IC50 [1]: ~1.5 µM
Compound: OC[C@H]1NC[C@@H](O)[C@@H]1O [DAB, 1,4-dideoxy-1,4-imino-D-Arabinitol]
- tumor size / xenograft growth [2]: failed to continue to proliferate over the course of 15 weeks; also recorded: significantly decreased tumor size as compared to PBS

Compound: CN(C)C(=N)N=C(N)N [metformin]
- p-ACC [3, 15]: only the malin-OE cell line showed a significant increase in p-ACC
- p-AMPK [3, 15]: increased p-AMPK in both EV and malin-OE cell lines
- AMPK activity (p-ACC read out) response to AMPK activator ([3]; ES-cells, FIG. 20): insensitive

Compound: COc1ccccc1O [guaiacol, 2-methoxyphenol]
- IC50 ([4]; A673, 48 hrs, read-out: IC50 (50% cell viability)): ~20 µM
- IC50 ([4]; A673 cells, FIG. 31B, read-out: IC50): ~20 µM
- IC50 [5]: ~20 µM
- IC50 [6]: ~20 µM
- reduction in total glycogen [7]: 3 fold
- reduction in normalized glycogen levels [8]: 3 fold
- sensitivity to metformin induced AMPK activation (p-ACC) [9]: more sensitive to metformin induced AMPK activation, showing more prominent increase in p-ACC
- reduction in tumor volume at the experiment endpoint [10]: 4 fold
- tolerability / adverse side effects [11]: well tolerated in athymic nude mice without any adverse side effects
- toxicity in vivo [12]: minimal toxicity in vivo
- bioavailability [13]: high bioavailability

Compound: CCC(=C/[C@H](C)C/C=C/C(C)=C/[C@@H](C)C(=O)[C@@H](C)[C@H](O)[C@@H](C)C/C(C)=C/C(=O)O)/C=C/[C@@H]1OC(=O)C=C[C@@H]1C [leptomycin]
- localization of endogenous GP [14]: accumulation of endogenous GP in the nucleus
